According to PMC11134387, “Cancer-Stem-Cell Phenotype-Guided Discovery of a Microbiota-Inspired Synthetic Compound Targeting NPM1 for Leukemia” (JACS Au, 2024):

Target: T1, NPM1 C-end WT (Homo sapiens, UniProt P06748)
T1 construct: the C-end domain (residues 225- 294); 6xHis (N); made in house; host or cells: E. coli BL21(DE3)
Assay: Isothermal titration calorimetry, NPM1 C-end WT
Format: binding
Settings: ITC, 25 °C
Source text: To confirm a direct interaction of UCM-13369 with NPM1 and to address which domain of the protein would be responsible for binding the compound, pure protein samples of the pentameric N-end domain of NPM1, along with the C-terminal DNA-binding domains of WT and mutant NPM1 C+, were used in calorimetry assays. […] This is indicative of a lower diversity in the chemical environment of amide protons consistent with the previously reported protein unfolding.[29] […] On the other hand, the pentameric construct of the NPM1 N-end, which lacks the AML-related region, yielded a much lower binding affinity (KD ca. 100 μM range, Figure 3D).
ITC experiments were performed in a Nano ITC Low Volume (TA Instruments) at 25 °C. […]
The purity of the protein samples was checked by SDS–PAGE analysis (Figure S3) and protein quantification was performed using the Bradford protein assay.5 NPM molar concentration was expressed as the pentameric form for NPM1 WT N-end and as a monomer for NPM1 C-end WT and mutant. […]
After extraction with acetonitrile and acidification, samples were desalted and concentrated with C18 tips. Mass spectra were recorded in a Hybrid Quadrupole-Orbitrap™ Mass Spectrometer (Thermo Scientific, Waltham, Massachusetts, USA)

T1 sequence (P06748 225-294): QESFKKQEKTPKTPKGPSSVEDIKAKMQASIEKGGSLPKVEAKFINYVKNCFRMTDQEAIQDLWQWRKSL

With `COc1ccc(C2Cc3[nH]c4ccccc4c3C(CCNCC3CC3)C2N)cc1` (stereo not shown) [4b, 4-{2-[(Cyclopropylmethyl)amino]ethyl}-2-(4-methoxyphenyl)-2,3,4,9-tetrahydro-1H-carbazol-3-amine] the Kd was 37 µM.
